System: mouse colon 26 cell line
Type: in vivo
Details: 18 mg/kg aspirin alone, tail vein, twice a week; day 23; compared to PBS alone
Procedure: The shedding microvesicles derived from E. coli, P. aeruginosa, and S. enteritidis were assayed for anticancer activity. A mouse colon 26 cell line was subcutaneously injected at a dose of 1×10^6 cells into mice, and cultured. After one week, a PBS solution containing 1 μg, or 5 μg of each of the Gram-negative bacterial cell-derived microvesicles was injected at a dose of 100 μl twice a week via the tail vein into the mice which were divided into groups, each consisting of three. On day 23 after the transplantation of cancer cells, the sizes of colon cancer tissue were monitored. The volume of cancer tissue was calculated by the equation V=l×s^2/2, wherein 1 is a length of the longest axis of a tumor and s is a length of the axis perpendicular to the longest axis.
The shedding microvesicles derived from S. aureus and Lactobacillus acidophilus were assayed for anticancer activity. […] On day 23 after the transplantation of cancer cells, the sizes of colon cancer tissue were monitored. The volume of cancer tissue was calculated by the equation V=l×s^2/2, wherein 1 is a length of the longest axis of a tumor and s is a length of the axis perpendicular to the longest axis.
A mouse colon 26 cell line was subcutaneously injected at a dose of 1×10^6 cells into mice, and cultured. […] On day 23 after the transplantation of cancer cells, the sizes of colon cancer tissue were monitored. […]

## CC(=O)Oc1ccccc1C(=O)O [aspirin]
  size of colon tumors: no differences in the size of colon tumors

Source: patent US9066971B2 (priority 2010, dated 2015)
